Measured values reported in patent US11814367B2, “Inhibitors of glycogen synthase 1 (GYS1) and methods of use thereof” (Maze Therapeutics, Inc., priority 2021, dated 2023).

How the values were obtained:
[1] = target: hGYS1 enzyme (recombinant hGYS1/GN1 protein) (Homo sapiens (Human), UniProt P13807); test: GYS1 coupled enzyme assay (PK/LDH); type: biochemical; settings: hGYS1/GN1 50 nM, UDP-Glucose 0.8 mM, G6P 1 mM; geometric mean of at least 2 runs
[2] = target: hGYS2 enzyme (recombinant hGYS2/GN1 protein) (Homo sapiens (Human), UniProt P54840); test: GYS2 coupled enzyme assay (PK/LDH); type: biochemical; settings: geometric mean of at least 2 assay runs on separate days, read-out: Avg_IC50
From the text: The GYS2 coupled enzyme assay is a kinetic biochemical assay that indirectly quantifies the rate of glycogen synthesis by coupling the conversion of GYS2 substrate UDP-glucose into UDP with downstream enzymatic reactions. UDP is released from UDP-glucose as glucose monomers are linked into the growing glycogen strand by GYS2. The coupled assay then proceeds with pyruvate kinase utilizing UDP and phospho(enol)pyruvate (PEP) to form pyruvate. Lactate dehydrogenase then converts pyruvate and NADH into lactate and NAD+. Oxidation of NADH to NAD+ can be measured continuously with a plate reader by quantifying the decrease in NADH absorbance at 340 nm over time.
Compounds that inhibit the hGYS2 enzyme and, subsequently, the downstream conversion of NADH to NAD+, were tested using assay ready plates (black, clear bottom 384 well plates) in a final DMSO reaction volume of 2.5% DMSO. The Assay Buffer contained 50 mM Tris pH 7.5, 2 mM MgCl2, and 100 mM KCl. Fresh stocks of BSA at a final concentration of 0.02% and TCEP 1 mM were added before splitting buffer into hGYS2 buffer and substrate buffer. To the hGYS2 buffer, rabbit liver glycogen was added at a final concentration of 0.2% glycogen. Glucose-6-Phosphate was added at 2 mM, recombinant hGYS2/GN1 protein was added at 200 nM to the substrate buffer, phosphoenolpyruvate (PEP) was added at 2 mM, UDP-Glucose was added at 2 mM, NADH was added at 0.6 mM, and Pyruvate Kinase/Lactate Dehydrogenase was added at 20 units/mL. The reaction was initiated by mixing hGYS2 buffer and substrate buffer at a 1:1 ratio. Both buffers were plated using a liquid dispensing device with hGYS2 buffer plated first followed by the substrate buffer. Plates were spun briefly to eliminate air bubbles and are immediately read in continuous mode at an absorbance of 340 nm, for 10 time points in one-minute increments, for a total of 10 minutes. The slope from these 10 time points was normalized to the positive and negative control wells. The duplicate % inhibition values are then averaged and fit to a Hill equation for dose response according to the Levenberg-Marquardt algorithm with the Hill equation maximum set to 100 and the minimum set to 0.
The results are shown in Table 4 below, which reports the IC50 of each compound. Unless otherwise specified, IC50 values are reported as the geometric mean of at least 2 assay runs on separate days. As shown in the table below, the compounds of the present invention are not potent inhibitors of human GYS2. Unless otherwise specified, IC50 values are reported as the geometric mean of at least two assay runs on separate days. Each run represents the average of a technical replicate, where each compound was assayed twice in the same plate. A superscript “#” symbol in Table 4 indicates results from a single assay run.

hGYS1 enzyme (recombinant hGYS1/GN1 protein), sequence (P13807 whole entry): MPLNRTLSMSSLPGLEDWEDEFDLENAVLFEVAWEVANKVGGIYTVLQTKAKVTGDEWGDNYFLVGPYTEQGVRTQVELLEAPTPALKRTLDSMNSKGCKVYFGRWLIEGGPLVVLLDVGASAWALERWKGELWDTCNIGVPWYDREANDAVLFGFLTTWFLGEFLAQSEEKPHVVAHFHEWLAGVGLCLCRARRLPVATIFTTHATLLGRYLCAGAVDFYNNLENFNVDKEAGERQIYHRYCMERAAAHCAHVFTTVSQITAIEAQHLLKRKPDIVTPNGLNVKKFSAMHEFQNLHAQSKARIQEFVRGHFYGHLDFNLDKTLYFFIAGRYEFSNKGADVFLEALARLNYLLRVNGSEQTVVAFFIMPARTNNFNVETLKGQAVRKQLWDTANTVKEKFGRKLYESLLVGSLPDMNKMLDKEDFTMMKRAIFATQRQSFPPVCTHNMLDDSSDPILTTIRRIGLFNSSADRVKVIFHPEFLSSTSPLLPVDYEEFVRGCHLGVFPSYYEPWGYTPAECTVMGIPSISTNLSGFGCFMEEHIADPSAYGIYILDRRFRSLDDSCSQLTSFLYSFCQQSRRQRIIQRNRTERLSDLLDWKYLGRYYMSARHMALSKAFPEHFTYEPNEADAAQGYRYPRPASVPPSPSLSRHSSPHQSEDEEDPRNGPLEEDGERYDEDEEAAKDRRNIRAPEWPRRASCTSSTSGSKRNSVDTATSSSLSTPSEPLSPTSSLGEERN
hGYS1 enzyme (recombinant hGYS1/GN1 protein), sequence (P46976 whole entry partner): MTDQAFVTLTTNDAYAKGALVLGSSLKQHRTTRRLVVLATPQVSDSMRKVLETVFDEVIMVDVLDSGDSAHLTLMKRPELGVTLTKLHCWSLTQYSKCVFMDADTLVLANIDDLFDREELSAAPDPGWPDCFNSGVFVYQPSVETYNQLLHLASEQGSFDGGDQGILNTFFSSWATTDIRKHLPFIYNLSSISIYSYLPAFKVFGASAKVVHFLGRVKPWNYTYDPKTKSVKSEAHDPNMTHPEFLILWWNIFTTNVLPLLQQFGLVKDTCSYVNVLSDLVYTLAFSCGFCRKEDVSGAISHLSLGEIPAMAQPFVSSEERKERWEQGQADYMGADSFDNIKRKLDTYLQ
hGYS2 enzyme (recombinant hGYS2/GN1 protein), sequence (P54840 whole entry): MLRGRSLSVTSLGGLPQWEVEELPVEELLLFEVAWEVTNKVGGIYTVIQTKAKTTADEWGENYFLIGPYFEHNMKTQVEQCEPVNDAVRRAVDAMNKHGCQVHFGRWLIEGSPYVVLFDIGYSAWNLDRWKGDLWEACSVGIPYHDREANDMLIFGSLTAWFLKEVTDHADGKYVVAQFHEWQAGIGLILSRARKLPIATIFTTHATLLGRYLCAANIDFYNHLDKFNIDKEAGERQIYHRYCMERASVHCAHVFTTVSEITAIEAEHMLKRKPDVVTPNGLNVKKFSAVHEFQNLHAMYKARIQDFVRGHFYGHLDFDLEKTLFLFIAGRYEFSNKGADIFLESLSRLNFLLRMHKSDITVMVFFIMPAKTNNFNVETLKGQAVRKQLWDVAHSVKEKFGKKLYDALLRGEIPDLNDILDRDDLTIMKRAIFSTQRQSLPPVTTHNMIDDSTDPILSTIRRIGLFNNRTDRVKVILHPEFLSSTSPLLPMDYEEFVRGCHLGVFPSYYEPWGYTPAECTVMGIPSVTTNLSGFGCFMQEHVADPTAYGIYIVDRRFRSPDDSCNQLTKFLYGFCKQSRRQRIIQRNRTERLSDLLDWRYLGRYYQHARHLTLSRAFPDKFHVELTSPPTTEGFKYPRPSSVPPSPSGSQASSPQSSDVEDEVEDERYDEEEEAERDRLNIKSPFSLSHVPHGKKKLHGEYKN
hGYS2 enzyme (recombinant hGYS2/GN1 protein), sequence (P46976 whole entry partner): as the sequence (P46976 whole entry partner) above

| SMILES | IC50 [1] | IC50 [2] |
| --- | --- | --- |
| Cc1cn(CC(=O)N2C[C@H](F)C[C@H]2C(=O)N[C@@H](c2ccccc2)c2ccc(C(C)C)c(F)n2)c(=O)n(C)c1=O (relative stereo) [Compound 777, (2S,4R)-1-[2-(3,5-dimethyl-2,4-dioxo-1,2,3,4-tetrahydropyrimidin-1-yl)acetyl]-4-fluoro-N-[(R*)-[6-fluoro-5-(propan-2-yl)pyridin-2-yl](phenyl)methyl] pyrrolidine-2-carboxamide] | 42 nM | > 100000 nM |
| CC(=O)N1C[C@H](F)C[C@H]1C(=O)NC(c1ccccc1)c1ccc(C2CCC2)cn1 (single isomer, unassigned) [Compound 603, (2S,4R)-1-acetyl-N-[(S) or (R)-(5-cyclobutylpyridin-2-yl) (phenyl)methyl]-4-fluoropyrrolidine-2-carboxamide] | 602 nM | > 100000 nM |
| CC(C)c1ccc(C(NC(=O)[C@@H]2C[C@@H](F)CN2C(=O)Cc2cnn[nH]2)c2ccc(N)nc2)cc1F (single isomer, unassigned) [Compound 620, (2S,4R)-N-[(R) or (S)-(6-aminopyridin-3-yl)[3-fluoro-4-(propan-2-yl)phenyl]methyl]-4-fluoro-1-[2-(1H-1,2,3-triazol-5-yl)acetyl]pyrrolidine-2-carboxamide] | 142 nM | > 100000 nM |
| CC(C)c1c(F)cc(C(NC(=O)[C@@H]2C[C@@H](F)CN2C(=O)Cc2ncco2)c2ccccc2)cc1F (single isomer, unassigned) [Compound 661, (2S,4R)-N-[(S) or (R)-[3,5-difluoro-4-(propan-2-yl)phenyl](phenyl)methyl]-4-fluoro-1-[2-(1,3-oxazol-2-yl)acetyl]pyrrolidine-2-carboxamide] | 43 nM | > 100000 nM |
| O=C(NC(c1ccccc1)c1cc(F)c(C2CC2)c(F)c1)[C@@H]1C[C@@H](F)CN1C(=O)Cc1ncco1 (single isomer, unassigned) [Compound 662] | 227 nM | > 100000 nM |
| CC(C)c1ccc([C@@H](NC(=O)[C@@H]2C[C@@H](F)CN2C(=O)C(C)n2cnnn2)c2ccccc2)cc1F (single isomer, unassigned) [Compound 767, (2S,4R)-4-fluoro-N-[(S)-[3-fluoro-4-(propan-2-yl)phenyl](phenyl)methyl]-1-[(2S) or (2R)-2-(1H-1,2,3,4-tetrazol-1-yl)propanoyl]pyrrolidine-2-carboxamide] | 106 nM | > 100000 nM |
| CC(C)c1ccc([C@@H](NC(=O)[C@@H]2C[C@@H](F)CN2C(=O)C(C)c2cnn[nH]2)c2ccccc2)cc1F (single isomer, unassigned) [Compound 770, (2S,4R)-4-fluoro-N-[(S)-[3-fluoro-4-(propan-2-yl)phenyl](phenyl)methyl]-1-[(2S) or (2R)-2-(1H-1,2,3-triazol-5-yl)propanoyl]pyrrolidine-2-carboxamide] | 62 nM | > 100000 nM |
| CC(=O)N1CC[C@@]2(C1)C(=O)NCC2C(=O)N1C[C@H](F)C[C@H]1C(=O)N[C@@H](c1ccccc1)c1ccc(C(C)C)cc1 (stereo in doubt) [Compound 6, (2S,4R)-1-[(4S,5R)-7-acetyl-7-oxo-2,7-diazaspiro[4.4]nonane-4-carbonyl]-4-fluoro-N-[(S)-phenyl[4-(propan-2-yl)phenyl]methyl]pyrrolidine-2-carboxamide] | 211 nM | > 100000 nM |
| CC(C)c1ccc([C@@H](NC(=O)[C@@H]2C[C@@H](F)CN2C(=O)Cc2ncccn2)c2ccccc2)cc1 [Compound 28, (2S,4R)-4-fluoro-N-[(S)-phenyl[4-(propan-2-yl)phenyl]methyl]-1-[2-(pyrimidin-2-yl)acetyl]pyrrolidine-2-carboxamide] | – | > 100000 nM |
| CC(C)c1ccc([C@@H](NC(=O)[C@@H]2C[C@@H](F)CN2C(=O)c2ccc3c(n2)NC(=O)CC3)c2ccccc2)cc1 [Compound 704, (2S,4R)-4-fluoro-1-(7-oxo-5,6,7,8-tetrahydro-1,8-naphthyridine-2-carbonyl)-N-[(S)-phenyl[4-(propan-2-yl)phenyl]methyl]pyrrol-idine-2-carboxamide] | 2220 nM | – |
| CC(C)COc1cc(C(=O)N2C[C@H](F)C[C@H]2C(=O)N[C@@H](c2ccccc2)c2ccc(C(C)C)cc2)ccn1 [Compound 705, (2S,4R)-4-fluoro-1-[2-(2-methylpropoxy)pyridine-4-carbonyl]-N-[(S)-phenyl[4-(propan-2-yl)phenyl]methyl]pyrrol-idine-2-carboxamide] | 1720 nM | – |
| CC(C)c1ccc([C@@H](NC(=O)[C@@H]2C[C@@H](F)CN2C(=O)c2cc(-n3ccnc3)ccn2)c2ccccc2)cc1 [Compound 707, (2S,4R)-4-fluoro-1-[4-(1H-imidazol-1-yl)pyridine-2-carbonyl]-N-[(S)-phenyl[4-(propan-2-yl)phenyl]methyl]pyrrol-idine-2-carboxamide] | 1990 nM | – |
| CC(C)c1ccc([C@@H](NC(=O)[C@@H]2C[C@@H](F)CN2C(=O)C(=O)Nc2cccnc2)c2ccccc2)cc1 [Compound 708, (2S,4R)-4-fluoro-N-[(S)-phenyl[4-(propan-2-yl)phenyl]methyl]-1-{[(pyridin-3-yl)carbamoyl]carbonyl} pyrrolidine-2-carboxamide] | 2510 nM | – |
| COc1cc(C(=O)N2C[C@H](F)C[C@H]2C(=O)N[C@@H](c2ccccc2)c2ccc(C(C)C)cc2)nn1C [Compound 709, (2S,4R)-4-fluoro-1-(5-methoxy-1-methyl-1H-pyrazole-3-carbonyl)-N-[(S)-phenyl[4-(propan-2-yl)phenyl]methyl]pyrrol-idine-2-carboxamide] | 1140 nM | – |
| CC(C)c1ccc([C@@H](NC(=O)[C@@H]2C[C@@H](F)CN2C(=O)Cn2nncc2N2CCC2)c2ccccc2)nc1 [Compound 715, (2S,4R)-1-{2-[5-(azetidin-1-yl)-1H-1,2,3-triazol-1-yl]acetyl}-4-fluoro-N-[(S)-phenyl[5-(propan-2-yl)pyridin-2-yl]methyl]pyrrolidine-2-carboxamide] | 105 nM | – |
| Cc1nc(CC(=O)N2C[C@H](F)C[C@H]2C(=O)N[C@@H](c2ccccc2)c2ccc(C3CC3)c(F)n2)oc1C [Compound 761, (2S,4R)-N-[(S)-(5-cyclopropyl-6-fluoropyridin-2-yl)(phenyl)methyl]-1-[2-(4,5-dimethyl-1,3-oxazol-2-yl)acetyl]-4-fluoropyrrolidine-2-carboxamide] | 55 nM | – |
| O=C(N[C@@H](c1ccccc1)c1ccc(C2CC2)c(F)n1)[C@@H]1C[C@@H](F)CN1C(=O)Cn1nncc1N1CCC1 [Compound 762, (2S,4R)-1-{2-[5-(azetidin-1-yl)-1H-1,2,3-triazol-1-yl]acetyl}-N-[(S)-(5-cyclopropyl-6-fluoropyridin-2-yl)(phenyl)methyl]-4-fluoropyrrolidine-2-carboxamide] | 27 nM | – |
| O=C(N[C@@H](c1ccccc1)c1ccc(C2CC2)c(F)n1)[C@@H]1[C@@H](O)[C@H](F)CN1C(=O)Cn1nnnc1C(F)F [Compound 763, (2S,3R,4R)-N-[(S)-(5-cyclopropyl-6-fluoropyridin-2-yl)(phenyl)methyl]-1-{2-[5-(difluoromethyl)-1H-1,2,3,4-tetrazol-1-yl]acetyl}-4-fluoro-3-hydroxypyrrolidine-2-carboxamide] | 466 nM | – |
| O=C(N[C@@H](c1ccccc1)c1ccc(C2CC2)c(F)n1)[C@@H]1[C@H](O)[C@@H](F)CN1C(=O)Cn1nnnc1C(F)F [Compound 764, (2S,3S,4S)-N-[(S)-(5-cyclopropyl-6-fluoropyridin-2-yl)(phenyl)methyl]-1-{2-[5-(difluoromethyl)-1H-1,2,3,4-tetrazol-1-yl]acetyl}-4-fluoro-3-hydroxypyrrolidine-2-carboxamide] | 155 nM | – |
| CC(C)c1ccc([C@@H](NC(=O)[C@@H]2C[C@@H](F)CN2C(=O)Cn2nncc2N2CCC2)c2ccccc2)nc1F [Compound 808, (2S,4R)-1-{2-[5-(azetidin-1-yl)-1H-1,2,3-triazol-1-yl]acetyl}-4-fluoro-N-[(S)-[6-fluoro-5-(propan-2-yl)pyridin-2-yl](phenyl)methyl] pyrrolidine-2-carboxamide] | 12 nM | – |
